In article PMC12040169 (PLOS Biology, 2025) one finds viability data, which are given here for 58 molecules.

The series in a line: in vitro. The following applies: human, hela cells, % viability.

By viability is commonly meant a read-out of living cells in per cent, often relative to untreated cells.

As for `Cc1cc(C(=O)CSc2nncs2)c(C)n1C(C)c1ccccc1` (stereo not shown) [CBK297934], the viability at 28.5 h, 10 µM was determined as 86.8%.

With `Cc1nnc(SCC(=O)NC(C)(C)C)n1NCc1cccc(Br)c1` [CBK266517], the viability at 28.5 h, 10 µM came out at 101%.

`O=C(O)CCCCn1c2c(c3ccccc31)CCCC2` [CBK000253]: the viability at 28.5 h, 10 µM is 98.9%.

For `O=C(CSCc1ccc(Cl)cc1Cl)Nc1c[nH]c(=O)[nH]c1=O` [CBK126912], the viability at 28.5 h, 10 µM worked out at 90.4%.

As for `O=C(CCN1CCN(CCO)CC1)Nc1cccc(Br)c1` [CBK058502], the viability at 28.5 h, 10 µM came to 102%.

For `c1ccc2c(c1)CCN(Cc1nc3ccccc3[nH]1)C2` [CBK126396], the viability at 28.5 h, 10 µM stood at 92.2%.

As to `COCCn1c(SCC(=O)N2CCCc3ccccc32)nc(O)cc1=O` [CBK304191], the viability at 28.5 h, 10 µM came to 59.5%.

`Cc1nn(C)c(Cl)c1CN(CCC#N)Cc1ccco1` [CBK304825]: the viability at 28.5 h, 10 µM worked out at 96.6%.

For the molecule `COc1ccccc1C(NC(=O)C1CCN(CCn2cnc3c2c(=O)n(C)c(=O)n3C)CC1)c1ccccn1` (stereo not shown) [CBK147939], the viability at 28.5 h, 10 µM worked out at 91.7%.

Regarding `CN(CCc1ccccn1)Cc1cc(Br)cs1` [CBK021314], the viability at 28.5 h, 10 µM was 92.8%.

For the molecule `COc1cncc(-c2cc(Nc3cccc(OC)c3OC)ncn2)c1` [CBK090728], the viability at 28.5 h, 10 µM amounted to 97.8%.

As to `CCCS(=O)(=O)NC1CCN(c2nc(C(F)(F)F)nc3ccsc23)CC1` [CBK304591], the viability at 28.5 h, 10 µM amounted to 87%.

With `COc1ccc(S(=O)(=O)NCCN2CCOCC2)cc1Br` [CBK269838], the viability at 28.5 h, 10 µM is 91.4%.

Consider `CN(C)c1ncc(Br)cc1C(=O)NCCNS(=O)(=O)c1ccccc1` [CBK076504], for which the viability at 28.5 h, 10 µM was 89.4%.

On to `CS(=O)(=O)c1ccc(-n2ncc(-c3cccc(C(F)(F)F)c3)n2)cc1` [CBK112672], for which the viability at 28.5 h, 10 µM is 95.6%.

On to `Cc1cc(C)n(CCNC(=O)N2CCC(Oc3cccnc3)CC2)n1` [CBK306719], for which the viability at 28.5 h, 10 µM was determined as 109%.

Consider `COCCNc1nccnc1-c1cccnc1` [CBK037376], for which the viability at 28.5 h, 10 µM worked out at 102%.

`C[C@]12CN(Cc3cccc(C#Cc4ccccc4)c3)C[C@H]1C(=O)Nc1ccccc1C(=O)N2` [CBK286403]: the viability at 28.5 h, 10 µM was 94.9%.

Turning to `CC(C)N(CCOc1nccnc1-c1ccc(OC(F)(F)F)cc1)C(C)C` [CBK106848], the viability at 28.5 h, 10 µM was 89.3%.

Regarding `CN(C)CCN(C)c1cc(C(F)(F)F)nc(NCc2ccc(Cl)cc2)n1` [CBK009668], the viability at 28.5 h, 10 µM worked out at 93%.

For the molecule `O=C(O)c1cc(-c2ccccc2)nc(Nc2nc3ccccc3s2)n1` [CBK264665], the viability at 28.5 h, 10 µM was 108%.

Take `Cc1cccc(-c2ncc(NC(=O)CCc3cccnc3)nc2-c2ccc(N)cc2)c1` [CBK036684]: the viability at 28.5 h, 10 µM came to 86.9%.

For `COc1ccccc1N1CCN(C(=O)NCCC(C)C)CC1` [CBK155611], the viability at 28.5 h, 10 µM was 94.5%.

Regarding `Cc1nc2ccccc2c(=O)n1Cc1cccnc1` [CBK288092], the viability at 28.5 h, 10 µM came to 94.3%.

For `O=S(=O)(c1ccc(-n2cnc(Cl)c2Cl)cc1)N1CCCN(Cc2csc(-c3ccccc3)n2)CC1` [CBK062790], the viability at 28.5 h, 10 µM came to 104%.

Take `CC(=O)Nc1ccc(S(=O)(=O)Nc2nc3ccccc3nc2Nc2ccc(C(=O)O)cc2)cc1` [CBK296079]: the viability at 28.5 h, 10 µM came out at 125%.

Turning to `O=C1N[C@H]2CCCN(C(=O)c3cncs3)[C@H]2CCCCCOc2ccccc21` [CBK292106], the viability at 28.5 h, 10 µM was 98.2%.

With `CNC(=O)NC(=O)C1CCN(CCOc2ccccc2)CC1` [CBK034959], the viability at 28.5 h, 10 µM turned out to be 94.7%.

For the molecule `COc1ccc(OCC2CCN(C(=O)[C@@H]3C[C@@H]4C=C[C@H]3C4)CC2)cc1` [CBK282218], the viability at 28.5 h, 10 µM was determined as 93.5%.

Turning to `Cc1cc(C)n(C(C)Cn2cncc2-c2cn(C)nc2C)n1` (stereo not shown) [CBK281792], the viability at 28.5 h, 10 µM was found to be 102%.

For the molecule `COc1ccc(/C=C2\S/C(=N\Cc3ccccc3)N(Cc3ccccc3)C2=O)cc1C(=O)O` [CBK262715], the viability at 28.5 h, 10 µM came out at 104%.

On to `C=CCn1c(-c2sc(NC(=O)CCc3ccco3)nc2C)n[nH]c1=S` [CBK295312], for which the viability at 28.5 h, 10 µM was determined as 89.4%.

In the case of `O=C(NCc1ccccn1)/C(=N/O)c1ccccc1` [CBK288472], the viability at 28.5 h, 10 µM was 114%.

For the molecule `c1ccc(CC2CCN(CCC(c3ccccc3)c3ccccc3)CC2)cc1` [CBK126389], the viability at 28.5 h, 10 µM came to 102%.

Turning to `CCOc1cc(C#N)cc(I)c1OCC(=O)O` [CBK266326], the viability at 28.5 h, 10 µM is 96.9%.

On to `COc1ccc(C)cc1N(CC(=O)Nc1ccc(F)c(F)c1)S(C)(=O)=O` [CBK267006], for which the viability at 28.5 h, 10 µM amounted to 96.5%.

In the case of `COc1ccccc1NC(=O)CSc1nnc(-c2ccncc2)o1` [CBK287743], the viability at 28.5 h, 10 µM was 87%.

With `CN(C)CCN(CCc1ccccc1)Cc1ccncc1` [CBK283145], the viability at 28.5 h, 10 µM was 91.5%.

As to `Cc1ccc2nc(N3CCCC(O)C3)c(CN3CCC(F)CC3)cc2c1` (stereo not shown) [CBK307016], the viability at 28.5 h, 10 µM turned out to be 89.1%.

Turning to `O=C(CSc1nnc(-c2ccncc2)o1)Nc1ccccc1` [CBK287586], the viability at 28.5 h, 10 µM is 91.3%.

For `COc1ccc(Cl)cc1S(=O)(=O)N1CCCC(C(=O)NCc2ccccn2)C1` (stereo not shown) [CBK269761], the viability at 28.5 h, 10 µM came to 96.7%.

Take `S=C(Nc1ccccc1)N1CCCCC1CN1CCCCC1` (stereo not shown) [CBK006196]: the viability at 28.5 h, 10 µM worked out at 112%.

For `CC(=O)Nc1cccc(NC(=O)c2ccc(CN3CCCCC3)cc2)c1` [CBK295596], the viability at 28.5 h, 10 µM worked out at 103%.

Regarding `Nc1nc2ccccc2c(=O)[nH]1` [CBK028707], the viability at 28.5 h, 10 µM stood at 101%.

In the case of `O=C1Nc2ccccc2Oc2ccc(S(=O)(=O)N3CCOCC3)cc21` [CBK269807], the viability at 28.5 h, 10 µM came out at 75.5%.

As for `COc1cc2c(c(OC)c1OC)C1(CCN(Cc3ccc(S(C)(=O)=O)cc3)CC1)NC(=O)C2` [CBK040014], the viability at 28.5 h, 10 µM is 108%.

For the molecule `O=C1c2ccccc2C(=O)N1CCc1nc2c3c4c(sc3ncn2n1)CCCCC4` [CBK268327], the viability at 28.5 h, 10 µM came out at 96.6%.

In the case of `O=C(Nc1ccc(OCc2nc3ccccc3s2)cc1)c1cccc(I)c1` [CBK267843], the viability at 28.5 h, 10 µM is 119%.

As to `O=C(NC(=S)Nc1sc2c(c1C(=O)O)CCCC2)c1ccccc1` [CBK263695], the viability at 28.5 h, 10 µM turned out to be 98.1%.

In the case of `Cc1cc(C)cc(CC(C)Cc2nc3ccccc3[nH]2)c1` (stereo not shown) [CBK262432], the viability at 28.5 h, 10 µM was found to be 92.3%.

As for `COc1ccc2[nH]cc(C(C(=O)O)N3CCN(Cc4ccccn4)CC3)c2c1` (stereo not shown) [CBK286846], the viability at 28.5 h, 10 µM came out at 80.5%.

Turning to `CCNC(=O)c1ccc(-c2ccc(OC(F)(F)F)cc2)nc1` [CBK156230], the viability at 28.5 h, 10 µM turned out to be 110%.

For `COc1cc(C2(O)CCN(Cc3ccccc3)C2)ccc1OCc1ccccc1` (stereo not shown) [CBK045620], the viability at 28.5 h, 10 µM was 95.9%.

For the molecule `Cc1ccc(CS(=O)(=O)NCc2ccccc2-n2ccnc2)cc1` [CBK281462], the viability at 28.5 h, 10 µM is 96.5%.

As for `CN(CC#CCN1CCCC1)C(=O)CNC(=O)OC(C)(C)C` [CBK007489], the viability at 28.5 h, 10 µM stood at 111%.

With `O=C1CC(Cc2ccccc2)C(=O)N1CCCn1ccnc1` (stereo not shown) [CBK265123G], the viability at 28.5 h, 10 µM was determined as 97.4%.

Regarding `COc1ccc(C2CC(c3ccc(Cl)cc3)Nc3ncnn32)c(OC)c1` (stereo not shown) [CBK287848], the viability at 28.5 h, 10 µM came out at 98.7%.

Regarding `O=C(NCC1Cc2ccccc2O1)c1cccc(NC(=O)c2ccco2)c1` (stereo not shown) [CBK298302], the viability at 28.5 h, 10 µM amounted to 83.3%.
